The source of these data is patent US20140296190A1, “MARKETING THE USE OF 25-HYDROXYVITAMIN D3 TO ENHANCE COGNITION” (DSM IP ASSETS B.V., priority 2013, published 2014).

Data set [1] concerns frail elderly with a low Vitamin D status. Put plainly: Example 2 placebo-controlled trial: executive function tests in frail elderly. Format: in vivo, human. Conditions: 6 months, in comparison to Vitamin D3 and placebo. From the text: The design is a parallel group, randomized, placebo-controlled, double-blind study with three different application groups. Each group has an appropriate number of participants (e.g., 20 participants). Eligibility is defined as being 65 years or older and being frail or pre-frail. Frailty is defined as having unintentional weight loss, weakness, self-reported exhaustion, slow walking speed, and/or low physical activity (see Fried L P, et al. Frailty in older adults: evidence for a phenotype. J Gerontol A Biol Sci Med. Sci. March 2001; 56(3):[…]-156.) A participant is classified as pre-frail when one or two of the aforementioned criteria are met, while frail is classified when three or more criteria are present. […] The duration of supplementation is 6 months (180 days). […] Double-blind randomization is carried out by means of a label code associated with a specific participant ID number, whose meaning is known only to the supplier. Participants are allocated randomly to these numbers. For baseline (Day 0) the following tests are performed: […] […] Executive functioning test batteries include the following standard tests of executive functioning: Trail Making Tests A and B (to determine the ratio of TMT-B/TMT-A), Stroop Colour-Word Test, including determining the Stroop ratio, calculated by Stroop card 3/((Stroop card 1+Stroop card 2)/2) and animal fluency test. […]

Data set [2] can be described thus: Example 2 placebo-controlled trial: serum/plasma 25-OH D3 level in frail elderly. On the set-up: species or system human. The conditions noted are these: in vivo. An excerpt: The design is a parallel group, randomized, placebo-controlled, double-blind study with three different application groups. Each group has an appropriate number of participants (e.g., 20 participants). Eligibility is defined as being 65 years or older and being frail or pre-frail. Frailty is defined as having unintentional weight loss, weakness, self-reported exhaustion, slow walking speed, and/or low physical activity (see Fried L P, et al. Frailty in older adults: evidence for a phenotype. J Gerontol A Biol Sci Med. Sci. […] A participant is classified as pre-frail when one or two of the aforementioned criteria are met, while frail is classified when three or more criteria are present. […] The duration of supplementation is 6 months (180 days). […] Double-blind randomization is carried out by means of a label code associated with a specific participant ID number, whose meaning is known only to the supplier. Participants are allocated randomly to these numbers. For baseline (Day 0) the following tests are performed: […] Baseline evaluation is followed by the randomization of the subjects. From Day 2 on, they start to take the study compounds. […] For the combination administration, the same ranges of both actives are administered. At visits on Day 90 and Day 180 the following tests are performed: […]

A further data set has as its system healthy adults under 65. The experiment in a line: Example 3 placebo-controlled trial: executive function tests in the general adult population. It is filed as in vivo, human. Conditions: healthy adults under 65, 6 months. Here is the method: The design is a parallel group, randomized, placebo-controlled, double-blind study similar to that of Example 2, above, except that the participants are healthy adults under 65. The duration of supplementation is 6 months (180 days). Group size is chosen so that a statistically significant difference, if present, may be observed between placebo and test groups. […] Double-blind randomization is carried out by means of a label code associated with a specific participant ID number, whose meaning is known only to the supplier. Participants are allocated randomly to these numbers. For baseline (Day 0) the following tests are performed: […] Baseline evaluation is followed by the randomization of the subjects. From Day 2 on, they start to take the study compounds. At visits on Day 90 and Day 180 the following tests are performed: […] Executive functioning test batteries include the following standard tests of executive functioning: Trail Making Tests A and B (to determine the ratio of TMT-B/TMT-A), Stroop Colour-Word Test, including determining the Stroop ratio, calculated by Stroop card 3/((Stroop card 1+Stroop card 2)/2) and animal fluency test. These tests are always performed at the same time of the day.

On the set-up of data set [3]: species or system human. Conditions: in vivo. From the text: The design is a parallel group, randomized, placebo-controlled, double-blind study similar to that of Example 2, above, except that the participants are healthy adults under 65. The duration of supplementation is 6 months (180 days). Group size is chosen so that a statistically significant difference, if present, may be observed between placebo and test groups.
Participants are randomly allocated to either the 25-OH D3 group, Vitamin D3 group, (Vitamin D3+25 OH D3) group or placebo group. Double-blind randomization is carried out by means of a label code associated with a specific participant ID number, whose meaning is known only to the supplier. Participants are allocated randomly to these numbers.
For baseline (Day 0) the following tests are performed: Physical examination, vital signs (blood pressure, heart rate), demographics, clinical laboratory, FFQ, serum: 25-OH D3, 24,25(OH)2D, 1,25(OH)2D3, Vitamin D3, calcium, albumin, creatinine, fasting glucose, PTH; urine: calcium, creatinine; executive function tests (see below). Baseline evaluation is followed by the randomization of the subjects. From Day 2 on, they start to take the study compounds. […]

SMILES strings stand for the structures. Where two headings read alike, the source gives them in different places.

For `C=C1CC[C@H](O)C/C1=C/C=C1\CCC[C@]2(C)[C@@H]([C@H](C)CCCC(C)(C)O)CC[C@@H]12` [25(OH)D, 25-hydroxyvitamin D3], the “Improvement of executive functioning” value in data set [1] is given as “significantly higher effect”. Besides, the “25-OH D serum level” value in data set [2] and in data set [3] was “significantly increases” throughout. In the data set on healthy adults under 65, the “Executive function in comparison to placebo” value is on record as “Positive results”.
